The results in this text go back to ChEMBL document CHEMBL1155838, “Biphenyl amide p38 kinase inhibitors 3: Improvement of cellular and in vivo activity” (Bioorg Med Chem Lett, 2008).

Type in all cases: ADME, organism-based
A short description of data set [1]: Oral bioavailability in Lewis rat at […]. The settings on record: in vivo.
A short description of data set [2]: Clearance in Lewis rat plasma at 0.5 mg/kg, iv. More on the design: dose 0.5 mg/kg, route intravenous.
The nature of data set [3]: Terminal half life in Lewis rat plasma at 0.5 mg/kg, iv. The settings on record: read-out: beta t1/2 (converted). Set-up: dose 0.5 mg/kg, route intravenous.
A short description of data set [4]: Volume of distribution at steady state in Lewis rat at 0.5 mg/kg, iv. More on the design: dose 0.5 mg/kg, route intravenous. The settings on record: in vivo, read-out: Vdss.

Regarding `Cc1ccc(C(=O)NC2CC2)cc1-c1ccc(C(=O)NCC2CC2)cc1`, the bioavailability in data set [1] was 113%. Also, the clearance (commonly the rate of elimination divided by the concentration) in data set [2] turned out to be 6 mL/min/kg. In addition, the half-life in data set [3] was 1.3 h. In addition, the Vd in data set [4] came to 0.6 L/kg.
